Laboratory results from patent US5173502A, “Substituted trifluoropropan-1-yl-imidazole alpha 2-receptor anagonists” (Adir et Compagnie, priority 1990, dated 1992).

Tests used:
α2-adrenergic receptors = assay: In vivo α2-antagonism test: reestablishment of the righting reflex lost through xylazine in rats; parameters: species or system rat; details: xylazine-induced loss of righting reflex
Protocol: (§1) In vivo α2 -antagonism test
(§2) The α2 -antagonist properties of the compounds of the invention were determined according to a method described by F. Colpaert et al., (DRUG Development Research 7, 125-140, 1986) by measuring the effects produced by those compounds on the loss of the correcting reflex and exophthalmia induced in rats by xylazine, a known agonist of α2-adrenergic receptors in the central nervous system.
(§3) The reestablishment of the righting reflex measures the α2 -antagonist potential of the compounds, whilst the return of the eye to a normal position measures the α1 -antagonist potential.

α1 = assay: In vivo test: return of the eye to a normal position (xylazine-induced exophthalmia) in rats, α1-antagonist potential; parameters: species or system rat
Protocol: as §1, §2, §3

**Q.** For `Cl.FC(F)(F)C(Cc1c[nH]cn1)c1ccccc1` (centres unmarked) [Example 2, 4-(2-Phenyl-3,3,3-trifluoropropan-1-yl)-imidazole hydrochloride], which “ED50 (α2)” value (α2-adrenergic receptors) is on record?
**A.** The value was 5 mg/kg.

**Q.** And the “ED50 (α1)” value (α1)?
**A.** Its value is “higher than 10 mg/kg”.
